Assay results as given in patent US10065990B2, “Cyclic peptide compound, and preparation method, pharmaceutical composition and use thereof” (HANGZHOU GUANYU BIO-MEDICAL CO., LTD, priority 2013, dated 2018).

Experiments:
HDAC7 = target: T1, HDAC7 (Homo sapiens, UniProt Q8WUI4); experiment: HDAC biochemical activity measurement (fluorescent substrate deacetylation);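 further: fluorogenic deacetylation assay using acetyl-lysine substrate at 20 µM, enzyme and compound incubated 30 min at 37 °C, then developer added, fluorescence read at 360/460 nm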; details: HDAC7; 37° C. 30 minutes
T1 sequence (Q8WUI4 1-952): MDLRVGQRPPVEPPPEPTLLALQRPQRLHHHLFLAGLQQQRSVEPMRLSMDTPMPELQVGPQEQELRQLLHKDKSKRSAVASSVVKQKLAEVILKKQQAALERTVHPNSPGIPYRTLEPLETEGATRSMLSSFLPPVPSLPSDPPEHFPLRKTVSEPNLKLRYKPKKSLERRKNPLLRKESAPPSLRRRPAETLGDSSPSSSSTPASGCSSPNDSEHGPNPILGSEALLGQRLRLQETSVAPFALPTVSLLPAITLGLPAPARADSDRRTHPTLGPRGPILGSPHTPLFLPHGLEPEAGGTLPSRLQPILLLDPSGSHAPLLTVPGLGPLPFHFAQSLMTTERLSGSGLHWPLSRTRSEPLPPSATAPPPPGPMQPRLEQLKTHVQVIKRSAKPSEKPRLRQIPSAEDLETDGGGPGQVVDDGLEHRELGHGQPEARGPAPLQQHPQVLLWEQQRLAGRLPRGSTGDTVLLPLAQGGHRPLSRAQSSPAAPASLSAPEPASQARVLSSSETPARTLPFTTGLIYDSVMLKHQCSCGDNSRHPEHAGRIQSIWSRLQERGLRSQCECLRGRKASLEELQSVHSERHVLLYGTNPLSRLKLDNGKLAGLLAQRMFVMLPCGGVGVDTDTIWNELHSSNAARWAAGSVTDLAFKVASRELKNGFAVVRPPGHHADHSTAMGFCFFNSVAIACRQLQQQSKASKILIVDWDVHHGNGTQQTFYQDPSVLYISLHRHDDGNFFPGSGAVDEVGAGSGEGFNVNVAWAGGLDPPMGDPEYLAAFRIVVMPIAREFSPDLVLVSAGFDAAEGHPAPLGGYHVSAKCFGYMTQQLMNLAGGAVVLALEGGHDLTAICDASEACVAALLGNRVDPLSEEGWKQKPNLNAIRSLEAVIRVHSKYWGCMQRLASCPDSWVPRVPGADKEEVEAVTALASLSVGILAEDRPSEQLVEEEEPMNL

[1] = test system: Huh-7 (human hepatoma cells); experiment: MTT cancer cell growth inhibition; format: cell-based; details: Homo sapiens, Huh-7, 72 h, MTT, 72 hours incubation, Huh-7 cells; read-out: GI50 Huh-7
In short: (§1)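 Growth inhibition is scored with MTT after three days of compound treatment spanning 10^−5–10^−10 M. Cells are maintained in DMEM or 1640 medium containing 10% FBS and plated at 1500 per well the previous night; absorbance at 570 nm gives viability, from which GI50 is calculated.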

[2] = test system: H1975 (non-small cell lung adenocarcinoma); experiment: MTT cancer cell growth inhibition; format: cell-based; details: Homo sapiens, NCI-H1975, 72 h, MTT, 72 hours incubation, H1975 cells; read-out: GI50 H1975
In short: as §1

[3] = test system: MCF-7 (human breast cancer cells); experiment: MTT cancer cell growth inhibition; format: cell-based; details: Homo sapiens, MCF7, 72 h, MCF-7 cells, 72 hours incubation, read-out: GI50 MCF
In short: as §1

[4] = test system: N-87 (human gastric cancer cells); experiment: MTT cancer cell growth inhibition; format: cell-based; details: Homo sapiens, 72 h, MTT, 72 hours incubation, N-87 cells; read-out: GI50 N-87
In short: as §1

[5] = test system: Hela (human cervical cancer cells); experiment: MTT cancer cell growth inhibition; format: cell-based; details: Homo sapiens, HeLa, 72 h, Hela cells, MTT, 72 hours incubation; read-out: GI50 Hela
In short: as §1

[6] = test system: A549 (human lung cancer cells); experiment: MTT cancer cell growth inhibition; format: cell-based; details: Homo sapiens, A549, 72 h, A549 cells, MTT, 72 hours incubation; read-out: GI50 A54
In short: as §1

[7] = test system: BGC-823 (human gastric cancer cells); experiment: MTT cancer cell growth inhibition; format: cell-based; details: Homo sapiens, BGC-823, 72 h, BGC-823 cells, MTT, 72 hours incubation; read-out: GI50 BG
In short: as §1

[8] = test system: PANC-1 (Pac-1, human pancreatic cancer cells); experiment: MTT cancer cell growth inhibition; format: cell-based; details: Homo sapiens, PANC-1, 72 h, PANC-1 cells, MTT, 72 hours incubation; read-out: GI50 PAN
In short: as §1

[9] = test system: lncap (prostate cancer cells); experiment: MTT cancer cell growth inhibition; format: cell-based; details: Homo sapiens, LNCaP, 72 h, lncap cells, MTT, 72 hours incubation; read-out: GI50 lnca
In short: as §1

[10] = test system: Bel-7402 (human hepatoma cells); experiment: MTT cancer cell growth inhibition; format: cell-based; details: Homo sapiens, Bel-7402, 72 h, MTT, 72 hours incubation, Bel-7402 cells; read-out: GI50 Bel-7402
In short: as §1

[11] = test system: HCC827 (human non-small cell lung cancer cells); experiment: MTT cancer cell growth inhibition; format: cell-based; details: Homo sapiens, HCC827, 72 h, MTT, 72 hours incubation, HCC827 cells; read-out: GI50 HCC827
In short: as §1

[12] = test system: MDA-MB-231 (breast cancer cells); experiment: MTT cancer cell growth inhibition; format: cell-based; details: Homo sapiens, MDA-MB-231, 72 h, read-out: GI50 MDA-MB-231, MTT, 72 hours incubation, MDA-MB-231 cells
In short: as §1

[13] = test system: U937 (human leukemia cells); experiment: MTT cancer cell growth inhibition; format: cell-based; details: Homo sapiens, U-937, 72 h, U937 cells, MTT, 72 hours incubation; read-out: GI50 U93
In short: as §1

[14] = test system: KBM-5 (human chronic myelogenous leukemia); experiment: MTT cancer cell growth inhibition; format: cell-based; details: Homo sapiens, KBM5, 72 h, MTT, 72 hours incubation, KBM-5 cells; read-out: GI50 KBM-5
In short: as §1

[15] = test system: HT1080 (human fibrosarcoma cells); experiment: MTT cancer cell growth inhibition; format: cell-based; details: Homo sapiens, HT-1080, 72 h, HT1080 cells, MTT, 72 hours incubation; read-out: GI50 HT1
In short: as §1

[16] = test system: MOLT-4 (human acute lymphoblastic leukemia cells); experiment: MTT cancer cell growth inhibition; format: cell-based; details: Homo sapiens, MOLT-4, 72 h, MOLT-4 cells, MTT, 72 hours incubation; read-out: GI50 Mol
In short: as §1

[17] = test system: DU145 (human prostate cancer cells); experiment: MTT cancer cell growth inhibition; format: cell-based; details: Homo sapiens, DU-145, 72 h, DU145 cells, MTT, 72 hours incubation; read-out: GI50 Du1
In short: as §1

[18] = test system: KBM5-T315I (human chronic myelogenous leukemia); experiment: MTT cancer cell growth inhibition; format: cell-based; details: Homo sapiens, 72 h, MTT, 72 hours incubation, KBM5-T315I cells; read-out: GI50 KBM5-T315I
In short: as §1

[19] = test system: K562 (human leukemia cells); experiment: MTT cancer cell growth inhibition; format: cell-based; details: Homo sapiens, K562, 72 h, MTT, 72 hours incubation, K562 cells; read-out: GI50 K562
In short: as §1

[20] = test system: SGC-7901 (human gastric cancer cells); experiment: MTT cancer cell growth inhibition; format: cell-based; details: Homo sapiens, SGC-7901, 72 h, MTT, 72 hours incubation, SGC-7901 cells; read-out: GI50 SGC-7901
In short: as §1

SMILES	IC50 HDAC7 (HDAC7)	GI50 [1]	GI50 [2]	GI50 [3]	GI50 [4]	GI50 [5]	GI50 [6]	GI50 [7]	GI50 [8]	GI50 [9]	GI50 [10]	GI50 [11]	GI50 [12]	GI50 [13]	GI50 [14]	GI50 [15]	GI50 [16]	GI50 [17]	GI50 [18]	GI50 [19]	other results
C/C=C1\NC(=O)c2nc(ccc2SC)CNC(=O)C[C@@H](/C=C/CCSC(C)=O)OC(=O)[C@H](CCCCN)NC1=O [Compound 192]	no activity	71 nM	35 nM	50 nM	32 nM	290 nM	90 nM	70 nM	60 nM	20 nM	54 nM	37 nM	83 nM	20 nM	21 nM	50 nM	90 nM	80 nM	29 nM	23 nM	GI50 [20]: 99 nM
C/C=C1\NC(=O)c2ccc(SC)c(n2)CNC(=O)C[C@@H](/C=C/CCSC(C)=O)OC(=O)[C@H](CCCCN)NC1=O [Compound 194]	no activity	84 nM	23 nM	40 nM	36 nM	50 nM	30 nM	50 nM	40 nM	20 nM	27 nM	35 nM	27 nM	60 nM	51 nM	10 nM	30 nM	30 nM	25 nM	29 nM	GI50 [20]: 43 nM
C/C=C1\NC(=O)c2nc(ccc2SC)CNC(=O)C[C@@H](/C=C/CCSC(C)=O)OC(=O)[C@H](CCCCNC(=O)OCC2c3ccccc3-c3ccccc32)NC1=O [Compound 195]	no activity	45 nM	38 nM	30 nM	42 nM	60 nM	90 nM	20 nM	30 nM	90 nM	54 nM	79 nM	91 nM	50 nM	26 nM	30 nM	20 nM	50 nM	43 nM	81 nM	GI50 [20]: 14 nM
